# In patent publication US10543212B2, “Substituted amines for treating cardiac diseases” (Cardurion Pharmaceuticals, LLC, priority 2017, dated 2020):
# Counter-ions that a name gives are not always drawn. Like-named read-outs stand apart in the source and are kept apart here.
# How the values were obtained:
# [1] = molecular target: T1, Full-length, GST-tagged, human CaMKIIδ (Homo sapiens, UniProt Q13557); test: CaMKIIδ binding assay (TR-FRET with BODIPY-labeled probe ligand)
# T1 construct: Full-Length, Glutathione-S-Transferase(GST)-Tagged, Human CaMKIIδ was purchased from Carna Biosciences; purchased Carna Biosciences 02-111
# T1 sequence (Q13557 1-478 isoform Q13557-12): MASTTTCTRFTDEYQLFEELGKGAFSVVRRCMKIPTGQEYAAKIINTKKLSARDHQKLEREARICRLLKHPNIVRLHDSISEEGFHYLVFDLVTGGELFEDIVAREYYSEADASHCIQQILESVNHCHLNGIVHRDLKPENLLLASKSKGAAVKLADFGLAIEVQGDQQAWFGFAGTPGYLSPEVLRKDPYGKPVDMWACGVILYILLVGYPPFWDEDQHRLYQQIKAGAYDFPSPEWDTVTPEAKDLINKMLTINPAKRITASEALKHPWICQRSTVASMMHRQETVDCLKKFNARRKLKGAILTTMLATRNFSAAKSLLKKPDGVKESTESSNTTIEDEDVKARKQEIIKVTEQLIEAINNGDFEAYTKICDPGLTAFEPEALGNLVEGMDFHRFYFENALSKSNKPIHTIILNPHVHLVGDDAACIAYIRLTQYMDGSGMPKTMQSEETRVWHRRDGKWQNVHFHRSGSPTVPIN
# Procedure, shortened: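 TR-FRET probe-displacement binding: 0.5 nM GST-CaMKIIδ with 10 μg/mL calmodulin, 1 mM CaCl2, 0.21 nM Tb-anti-GST Ab and 300 nM BODIPY probe in HEPES pH 7.6 buffer. Eight-point 4-fold dilutions, 1 hr at room temperature. IC50 from logistic fit; 100% inhibition defined by 3 μM parent compound.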
# [2] = system: phosphorylation of CaMKII-specific site of phospholamban (Thr17, PLN) in the heart; test: In vivo cardiac CaMKII inhibition (P-PLN Thr17 in rat left ventricle, Western blotting); conditions: po, male SD rat left ventricle, vs vehicle-treated group, read-out: Reduction rate of P-PLN; for inhibition in vivo at 30 mg/kg: 30 mg/kg p.o.
# Method: To evaluate potency of test compounds to inhibit cardiac CaMKII kinase in vivo, phosphorylation levels of CaMKII-specific sites of phospholamban (Thr17, PLN) were measured in the heart of rats administered with test compounds at various doses.
# Test compounds were suspended in 0.5% [w/v] methylcellulose/water solution and administered (10 or 30 mg/kg) to male CD (SD) IGS rat (6-8 weeks old, n=4) by the p.o. route (5 mL/kg). At 2-4 hours after the administration, rats were sacrificed and the hearts were harvested. After washing the isolated hearts with ice-cold saline, connective tissues were removed on ice, and the isolated left ventricle were frozen into liquid nitrogen gas and stored at −80° C.
# The left ventricle samples were homogenized in RIPA-buffer containing phosphatase inhibitors and protease inhibitors. Samples were analyzed by Western blotting using anti-P-PLN (Thr17, Santa Cruz Biotechnology, sc-17024-R) antibody. The band intensities were quantified using an imaging system and were normalized relative to the vehicle-treated group.
# [3] = molecular target: T2, Human full-length CaMKIIδ (Homo sapiens, UniProt Q13557); test: Human CaMKII enzyme inhibition assay (radiometric kinase assay); type: biochemical; conditions: 3 μM compound, 500 nM ATP, 0.5 nM CaMKIIδ; for inhibition at 3 µM: read-out: CaMKIIδ inhibitory activity (%) at 3 μM
# T2 construct: Human full-length CaMKIIδ (Cat #02-111) was obtained from Carna Biosciences; GST; purchased Carna Biosciences 02-111
# Method: In Vitro CaMKIIδ Inhibitory Activity was Evaluated by an Enzyme Assay.
# Human CaMKII Enzyme Inhibition Assay
# Kinase assay for CaMKIIs was performed using the radiometric assay. Human full-length CaMKIIδ (Cat #02-111) was obtained from Carna Biosciences (Kobe, Japan).
# Enzyme reactions were performed in 25 mM HEPES, pH 7.5, with 5 mM magnesium chloride, 1 mM calcium chloride, 10 μg/mL Calmodulin, 2 mM DTT, 0.01% Tween20 and 500 nM ATP (0.2 μCi/well of [γ-33P] ATP) containing 0.5 nM CaMKIIδ and 0.1 μM autophosphorylation peptide (KKALRRQETVDAL)(Toray Research Center).
# After incubating the enzyme, peptide, and compounds for 5 min, kinase reactions were initiated by adding ATP, followed by incubation for 60 min at room temperature in a total volume of 50 μL. The reactions were terminated by the addition of 10% trichloroacetic acid (final concentration). The [γ-33P]-phosphorylated proteins were filtered in a Harvest Plate (Merck Millipore) with a Cell Harvester (PerkinElmer) and then free [γ-33P] ATP was washed out with 3% phosphoric acid. The plates were dried, followed by the addition of 40 μl of MicroScintO (PerkinElmer). The radioactivity was counted by a TopCount scintillation counter (PerkinElmer). The signals of the reaction without enzyme were defined as 100% inhibitory activity and those of the reaction without inhibitors as 0% inhibitory activity. In vitro CaMKIIδ inhibitory activity was evaluated by % inhibitory activity of 3 μM compound concentration.
# [4] = Table 2, CaMKIIδ binding assay, activity given as class A/B/C
smiles,measurement,setting,value
"CC(=O)OC(C)(C)CN1CC2(CC(n3cc(Nc4ncc(-c5ccc(Cl)c(O[C@@H](C)Cn6cnnn6)c5)cn4)c(OCC(F)(F)F)n3)C2)C1 [Example 951, 1-[6-(4-{[5-(4-chloro-3-{[(2S)-1-(1H-tetrazol-1-yl)propan-2-yl]oxy}phenyl)pyrimidin-2-yl]amino}-3-(2,2,2-trifluoroethoxy)-1H-pyrazol-1-yl)-2-azaspiro[3.3]heptan-2-yl]-2-methylpropan-2-yl acetate]",IC50,"[1]; CaMKIIδ binding assay, activity class per Table 2",< 10 nM
same,inhibition in vivo at 30 mg/kg,[2]; 4 hr after administration,> 50%
"C[C@@H](Cn1cnnn1)Oc1cc(-c2cnc(Nc3cn(C4CC5(C4)CN(C4CCOCC4)C5)nc3C(F)(F)F)nc2)ccc1Cl [Example 831, (S)-5-(3-((1-(1H-tetrazol-1-yl)propan-2-yl)oxy)-4-chlorophenyl)-N-(1-(2-(tetrahydro-2H-pyran-4-yl)-2-azaspiro[3.3]heptan-6-yl)-3-(trifluoromethyl)-1H-pyrazol-4-yl)pyrimidin-2-amine]",IC50,[1]; [4],< 10 nM
same,inhibition in vivo at 30 mg/kg,[2]; 4 hr after administration,> 50%
"C[C@@H](Cn1cnnn1)Oc1cc(-c2cnc(Nc3cn([C@H]4CC[C@H](N5CCOCC5)CC4)nc3OCC(F)F)nc2)ccc1Cl [Example 806, 5-(3-(((S)-1-(1H-tetrazol-1-yl)propan-2-yl)oxy)-4-chlorophenyl)-N-(3-(2,2-difluoroethoxy)-1-(trans-4-morpholinocyclohexyl)-1H-pyrazol-4-yl)pyrimidin-2-amine]",IC50,[1]; [4],< 10 nM
same,inhibition in vivo at 30 mg/kg,[2]; 2 hr after administration,> 50%
"C[C@@H](Cn1cnnn1)Oc1cc(-c2cnc(Nc3cn(C4CC5(C4)CN(C4CCOCC4)C5)nc3OCC(F)(F)F)nc2)ccc1Cl [Example 795, (S)-5-(3-((1-(1H-tetrazol-1-yl)propan-2-yl)oxy)-4-chlorophenyl)-N-(1-(2-(tetrahydro-2H-pyran-4-yl)-2-azaspiro[3.3]heptan-6-yl)-3-(2,2,2-trifluoroethoxy)-1H-pyrazol-4-yl)pyrimidin-2-amine]",IC50,[1]; [4],< 10 nM
same,inhibition in vivo at 30 mg/kg,[2]; 2 hr after administration,> 50%
"CC(C)c1nn([C@H]2CC[C@H](N3CCOCC3)CC2)cc1Nc1ncc(-c2ccc(Cl)c(O[C@@H](C)Cn3cnnn3)c2)cn1 [Example 843, 5-(3-(((S)-1-(1H-tetrazol-1-yl)propan-2-yl)oxy)-4-chlorophenyl)-N-(3-isopropyl-1-(trans-4-morpholinocyclohexyl)-1H-pyrazol-4-yl)pyrimidin-2-amine]",IC50,[1]; [4],< 10 nM
same,inhibition in vivo at 10 mg/kg,"[2]; 10 mg/kg p.o., 4 hr after administration",> 50%
"C[C@@H](Cn1cnnn1)Oc1cc(-c2cnc(Nc3cn([C@H]4CC[C@H](N5CCOCC5)CC4)nc3C(F)(F)F)nc2)ccc1Cl [Example 695, 5-(3-(((S)-1-(1H-tetrazol-1-yl)propan-2-yl)oxy)-4-chlorophenyl)-N-(1-(trans-4-morpholinocyclohexyl)-3-(trifluoromethyl)-1H-pyrazol-4-yl)pyrimidin-2-amine]",IC50,"[1]; Table 2, activity class for CaMKIIδ",< 10 nM
same,inhibition in vivo at 30 mg/kg,[2]; 2 hr after administration,> 50%
"C[C@@H](Cn1cnnn1)Oc1cc(-c2cnc(Nc3cn(C4CCN(C5CCOCC5)CC4)nc3C(F)(F)F)nc2)ccc1Cl [Example 484, (S)-5-(3-((1-(1H-tetrazol-1-yl)propan-2-yl)oxy)-4-chlorophenyl)-N-(1-(1-(tetrahydro-2H-pyran-4-yl)piperidin-4-yl)-3-(trifluoromethyl)-1H-pyrazol-4-yl)pyrimidin-2-amine]",IC50,"[1]; CaMKIIδ binding assay, results of Table 2",< 10 nM
same,inhibition in vivo at 30 mg/kg,[2]; 2 hr after administration,> 50%
"C[C@@H](Cn1cnnn1)Oc1cc(-c2cnc(Nc3cn([C@H]4CC[C@H](N5CCOCC5)CC4)nc3OCC(F)(F)F)nc2)ccc1Cl [Example 772, 5-(3-(((S)-1-(1H-tetrazol-1-yl)propan-2-yl)oxy)-4-chlorophenyl)-N-(1-(trans-4-morpholinocyclohexyl)-3-(2,2,2-trifluoroethoxy)-1H-pyrazol-4-yl)pyrimidin-2-amine]",IC50,[1]; [4],< 10 nM
same,inhibition in vivo at 30 mg/kg,[2]; 2 hr after administration,> 50%
"COc1cc(N2CCC(N3CCOCC3)CC2)c(F)cc1Nc1ncc(-c2ccc(Cl)c(O[C@@H](C)Cn3cnnn3)c2)cn1 [Example 205, 5-(4-chloro-3-(((2S)-1-(1H-tetrazol-1-yl)propan-2-yl)oxy)phenyl)-N-(5-fluoro-2-methoxy-4-(4-(morpholin-4-yl)piperidin-1-yl)phenyl)pyrimidin-2-amine]",inhibition at 3 µM,[3],99%
"COc1nc(N2CCC(N3CCOCC3)CC2)ncc1Nc1ncc(-c2ccc(C#N)c(O[C@@H](C)Cn3cnnn3)c2)cn1 [Example 56, 4-(2-((4-methoxy-2-(4-(morpholin-4-yl)piperidin-1-yl)pyrimidin-5-yl)amino)pyrimidin-5-yl)-2-(((2S)-1-(1H-tetrazol-1-yl)propan-2-yl)oxy)benzonitrile]",inhibition at 3 µM,[3],98%
"COc1cc(C2CCN(C3COC3)CC2)ccc1Nc1ncc(-c2ccc(Cl)c(O[C@@H](C)Cn3cnnn3)c2)cn1 [Example 206, 5-(4-chloro-3-(((2S)-1-(1H-tetrazol-1-yl)propan-2-yl)oxy)phenyl)-N-(2-methoxy-4-(1-(oxetan-3-yl)piperidin-4-yl)phenyl)pyrimidin-2-amine]",inhibition at 3 µM,[3],99%
"COc1cc(CNC2CC2)ccc1Nc1ncc(-c2ccc(C#N)c(O[C@@H](C)Cn3cncn3)c2)cn1 [Example 33, 4-(2-((4-((cyclopropylami-no)methyl)-2-methoxy-phenyl)amino)pyrimidin-5-yl)-2-(((2S)-1-(1H-1,2,4-triazol-1-yl)propan-2-yl)oxy)benzonitrile dihydrochloride]",inhibition at 3 µM,[3],98%
"C[C@@H](Cn1cncn1)Oc1cc(-c2cnc(Nc3cn[nH]c3)nc2)ccc1C#N [Example 379, 4-(2-(1H-pyrazol-4-ylamino)pyrimidin-5-yl)-2-(((2S)-1-(1H-1,2,4-triazol-1-yl)propan-2-yl)oxy)benzonitrile]",inhibition at 3 µM,[3],98%
"COc1cc(N2CCC(N3CCOCC3)CC2)ccc1Nc1ncc(-c2ccc(C#N)c(O[C@@H](C)Cn3cnnn3)c2)cn1 [Example 9, 4-(2-((2-methoxy-4-(4-(morpholin-4-yl)piperidin-1-yl)phenyl)amino)pyrimidin-5-yl)-2-(((2S)-1-(1H-tetrazol-1-yl)propan-2-yl)oxy)benzonitrile]",CaMKIIδ inhibitory activity (%) at 3 μM,[3],99%
"COc1cc(C2CCN(CCO)CC2)ccc1Nc1ncc(-c2ccc(C#N)c(O[C@@H](C)Cn3cnnn3)c2)cn1 [Example 160, 4-(2-((4-(1-(2-hydroxyethyl)piperidin-4-yl)-2-methoxy-phenyl)amino)pyrimidin-5-yl)-2-(((2S)-1-(1H-tetrazol-1-yl)propan-2-yl)oxy)benzonitrile]",inhibition at 3 µM,[3],99%
"C[C@@H](Cn1cncn1)Oc1cc(-c2cnc(Nc3cnn(C(C)(C)C)c3)nc2)ccc1C#N [Example 373, 4-(2-((1-tert-butyl-1H-pyrazol-4-yl)amino)pyrimidin-5-yl)-2-(((2S)-1-(1H-1,2,4-triazol-1-yl)propan-2-yl)oxy)benzonitrile]",inhibition at 3 µM,[3],98%
"COc1cc(N2CCN(C3COC3)CC2)ccc1Nc1ncc(-c2ccc(Cl)c(O[C@@H](C)Cn3cnnn3)c2)cn1 [Example 197, 5-(4-chloro-3-(((2S)-1-(1H-tetrazol-1-yl)propan-2-yl)oxy)phenyl)-N-(2-methoxy-4-(4-(oxetan-3-yl)piperazin-1-yl)phenyl)pyrimidin-2-amine]",inhibition at 3 µM,[3],97%
"COc1cc(N2CCN(C3COC3)CC2)c(F)cc1Nc1ncc(-c2ccc(Cl)c(O[C@@H](C)Cn3cnnn3)c2)cn1 [Example 211, 5-(4-chloro-3-(((2S)-1-(1H-tetrazol-1-yl)propan-2-yl)oxy)phenyl)-N-(5-fluoro-2-methoxy-4-(4-(oxetan-3-yl)piperazin-1-yl)phenyl)pyrimidin-2-amine]",inhibition at 3 µM,[3],98%
